This note sets out measurements from BindingDB's records for doi:10.1016/j.bmcl.2006.02.063 (The University of Kansas, 2006).

This test in a line: Inhibition of Her2 in SKBr3 cells by ELISA. For orientation: An ELISA detects its analyte on a solid surface through an enzyme-linked reagent.
Turning to `COc1cc(C2CC(c3ccccc3O)N=N2)ccc1O` (stereo not drawn) [6-[5-(4-hydroxy-3-methoxyphenyl)-3-pyrazolidinylidene]-1-cyclohexa-2,4-dienone], half-maximal inhibition (IC50) was put at 18 µM. Turning to `O=S(=O)(Nc1ccc(Cl)cc1O)c1ccccc1`, half-maximal inhibition (IC50) required 31 µM. `CC1(C)CC(=O)C2C(=Nc3ccccc3NC2c2cccc(O)c2O)C1` (stereo not drawn) [3-(1-hydroxy-3,3-dimethyl-3,4,10,11-tetrahydro-2H-dibenzo[b,e][1,4]diazepin-11-yl)-benzene-1,2-diol]: the IC50 (usually the midpoint of a concentration-inhibition curve) amounted to 61 µM.
